Results taken from ChEMBL document CHEMBL3997834, “Phenolic compounds isolated from Dioscorea zingiberensis protect against pancreatic acinar cells necrosis induced by sodium taurocholate” (Bioorg Med Chem Lett, 2017).
Activity calls are given as the source filed them. The rule behind the calls is not given here.

Tests used:
Pancreatic acinar cell [1] = assay: (§1) Cytoprotective activity against sodium taurocholate-induced necrosis in Balb/C mouse pancreatic acinar cells at 0.5 mM after 40 mins by propidium iodide/Hoechst 33342 staining-based fluorescence microscopic method; format: functional
[2] = Cytoprotective activity against sodium taurocholate-induced necrosis in Balb/C mouse pancreatic acinar cells assessed as intracellular ATP production at 0.5 mM measured at 40 mins by luminescence assay (reference value: 21.5%); format: functional, Pancreatic acinar cell
[3] = Cytoprotective activity against sodium taurocholate-induced necrosis in Balb/C mouse pancreatic acinar cells assessed as intracellular ATP production at 0.5 mM measured at 20 mins by luminescence assay (reference value: 39.9%); format: functional, Pancreatic acinar cell
[4] = as §1; format: functional, Pancreatic acinar cell
Pancreatic acinar cell [5] = assay: Cytoprotective activity against sodium taurocholate-induced necrosis in Balb/C mouse pancreatic acinar cells at 1 mM after 40 mins by propidium iodide/Hoechst 33342 staining-based fluorescence microscopic method; format: functional
[6] = Cytoprotective activity against sodium taurocholate-induced necrosis in Balb/C mouse pancreatic acinar cells assessed as decrease in intracellular reactive oxygen species generation at 0.5 mM measured for 20 mins by H2-DCFDA probe-based fluorescence assay relative to control; format: functional, Pancreatic acinar cell; set-up: scale not given: the % may be the effect or the level left
[7] = Cytotoxicity against Balb/C mouse pancreatic acinar cells at 1 mM after 40 mins by propidium iodide/Hoechst 33342 staining-based fluorescence microscopic method; settings: pancreatic acinar cell, 1000 µM
Pancreatic acinar cell [8] = assay: Cytoprotective activity against sodium taurocholate-induced necrosis in Balb/C mouse pancreatic acinar cells at 5 mM after 40 mins by propidium iodide/Hoechst 33342 staining-based fluorescence microscopic method; format: functional

SMILES	Activity (Pancreatic acinar cell [1])	also measured
COc1ccc2c(c1O)-c1c(cc(O)cc1OC)CC2	inactive	
Oc1ccc(CC[C@@H](O)C[C@H](O)CCc2ccc(O)c(O)c2)cc1		Activity [2]: 38.3%; Activity [3]: 59.4%; Activity [4]: 19%; Activity (Pancreatic acinar cell [5]): inactive; Activity [6]: 27.9%; Activity [7]: Toxic
Cn1c(=O)c2c(ncn2C)n(C)c1=O		Activity (Pancreatic acinar cell [8]): Active
Oc1ccc(CC[C@@H](O)C[C@H](O)CCc2ccc(O)cc2)cc1	Active	
COc1cc(CC[C@@H](O)C[C@H](O)CCc2ccc(O)cc2)ccc1O	Active	
COc1cc(CC[C@@H](O)C[C@H](O)CCc2ccc(O)c(OC)c2)ccc1O	Active	
COc1c(O)cc(CCc2ccccc2)cc1O	inactive	
COc1ccc(CCc2cc(O)c(OC)c(O)c2)cc1	inactive	
COc1cc(O)cc(CCc2ccc(OC)c(O)c2)c1	inactive	
